Test results from PubChem BioAssay AID248 (DTP/NCI, 2004).
“And” between values parts separate entries of the source, which are not always exact repeats. Identical values can stand only once. Toxic doses and inconclusive results are not listed. No stated cut-off is given here; in the data, active means T/C of 150% or more; inactive means T/C below 125%.

Tested on: L1210 leukemia ip in BDF1 mice, survival T/C
Assay: NCI In Vivo Anticancer Drug Screen. Data for tumor model L1210 Leukemia (intraperitoneal) in B6D2F1 (BDF1) mice
Details: endpoint: mean survival time, higher = longer survival
Outline: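 Read-out is survival time, reported as the treated-group measurement over the vehicle-control measurement.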

[1] = dose: 50.0 mg/kg/injection, schedule: Q01DX001 (ip), vehicle: carboxymethylcellulose (CMC)
[2] = dose: 100.0 mg/kg/injection, schedule: Q01DX001 (ip), vehicle: carboxymethylcellulose (CMC)
[3] = dose: 200.0 mg/kg/injection, schedule: Q01DX001 (ip), vehicle: carboxymethylcellulose (CMC)
[4] = dose: 400.0 mg/kg/injection, schedule: Q01DX001 (ip), vehicle: carboxymethylcellulose (CMC)

Measured: T/C

COC1OC(OC)[CH]([Hg][Cl])C1OC (stereo not given)
inactive: dose: 3.13 mg/kg/injection, schedule: Q01DX009 (ip), vehicle: saline with Tween-80 94 % of control | dose: 6.25 mg/kg/injection, schedule: Q01DX009 (ip), vehicle: saline with Tween-80 92 % of control | dose: 6.25 mg/kg/injection, schedule: Q04DX003 (ip), vehicle: saline 100 % of control | dose: 12.5 mg/kg/injection, schedule: Q01DX009 (ip), vehicle: saline with Tween-80 91 % of control | dose: 12.5 mg/kg/injection, schedule: Q04DX003 (ip), vehicle: saline 100 % of control

Cc1ccc(S(=O)(=O)Oc2ccc(I)cc2)cc1
inactive: dose: 100.0 mg/kg/injection, schedule: Q01DX009 (ip), vehicle: Klucel (hydroxypropylcellulose) (HPC) 107 % of control | dose: 100.0 mg/kg/injection, schedule: Q04DX003 (ip), vehicle: Klucel (hydroxypropylcellulose) (HPC) 100 % of control | dose: 200.0 mg/kg/injection, schedule: Q01DX009 (ip), vehicle: Klucel (hydroxypropylcellulose) (HPC) 98 % of control | dose: 200.0 mg/kg/injection, schedule: Q04DX003 (ip), vehicle: Klucel (hydroxypropylcellulose) (HPC) 105 % of control | dose: 400.0 mg/kg/injection, schedule: Q01DX009 (ip), vehicle: Klucel (hydroxypropylcellulose) (HPC) 103 % of control | dose: 400.0 mg/kg/injection, schedule: Q04DX003 (ip), vehicle: Klucel (hydroxypropylcellulose) (HPC) 97 % of control

CCCCc1c(N)nc(N)nc1N
inactive: dose: 75.0 mg/kg/injection, schedule: Q01DX001 (ip), vehicle: saline with Tween-80 103 % of control

Nc1ccc(Oc2ccc(S(=O)(=O)O)cc2)cc1
inactive: dose: 100.0 mg/kg/injection, schedule: Q04DX003 (ip), vehicle: saline 93 % of control | dose: 200.0 mg/kg/injection, schedule: Q04DX003 (ip), vehicle: saline 94 % of control | dose: 400.0 mg/kg/injection, schedule: Q04DX003 (ip), vehicle: saline 94 % of control

O=C(CCCC(=O)NNC(=O)Nc1cccc(Cl)c1)NNC(=O)Nc1cccc(Cl)c1
inactive: dose: 50.0 mg/kg/injection, schedule: Q01DX001 (ip), vehicle: saline 96 % of control | dose: 100.0 mg/kg/injection, schedule: Q01DX001 (ip), vehicle: saline 106 % of control | dose: 200.0 mg/kg/injection, schedule: Q01DX001 (ip), vehicle: saline 106 % of control | dose: 400.0 mg/kg/injection, schedule: Q01DX001 (ip), vehicle: saline 93 % of control

C=C1C(=O)OC2CC3(C)OC3C3OC3C3=CC(OC3=O)C12 (stereo not given)
inactive: dose: 5.0 mg/kg/injection, schedule: Q01DX001 (ip), vehicle: carboxymethylcellulose (CMC) 112 % of control

COc1ccccc1CCO
inactive: [1] 86 % of control | [2] 98 % of control | [3] 98 % of control | [4] 98 % of control

O=[N+]([O-])c1ccc(O)c(/C=N\NC(=S)Nc2ccc3cn[nH]c3c2)c1
inactive: [1] 97 % of control | [2] 103 % of control | [3] 93 % of control | [4] 97 % of control

CCCCCN(CCCCC)C(=O)CCCC
inactive: [2] 115 % of control | dose: 100.0 mg/kg/injection, schedule: Q01DX009 (ip), vehicle: carboxymethylcellulose (CMC) 93 % of control and 97 % of control | dose: 100.0 mg/kg/injection, schedule: Q04DX002 (ip), vehicle: carboxymethylcellulose (CMC) 101 % of control and 105 % of control | dose: 100.0 mg/kg/injection, schedule: Q04DX003 (ip), vehicle: carboxymethylcellulose (CMC) 97 % of control | [3] 101 % of control | dose: 200.0 mg/kg/injection, schedule: Q01DX009 (ip), vehicle: carboxymethylcellulose (CMC) 100 % of control and 102 % of control | dose: 200.0 mg/kg/injection, schedule: Q04DX002 (ip), vehicle: carboxymethylcellulose (CMC) 98 % of control and 103 % of control | dose: 200.0 mg/kg/injection, schedule: Q04DX003 (ip), vehicle: carboxymethylcellulose (CMC) 95 % of control | [4] 100 % of control | dose: 400.0 mg/kg/injection, schedule: Q01DX009 (ip), vehicle: carboxymethylcellulose (CMC) 97 % of control and 86 % of control | dose: 400.0 mg/kg/injection, schedule: Q04DX002 (ip), vehicle: carboxymethylcellulose (CMC) 98 % of control and 87 % of control | dose: 400.0 mg/kg/injection, schedule: Q04DX003 (ip), vehicle: carboxymethylcellulose (CMC) 100 % of control
